Assay results from US20240197761A1, “FUCOSYLATION AND IMMUNE MODULATION IN CANCER” (H. LEE MOFFITT CANCER CENTER AND RESEARCH INSTITUTE, INC., priority 2021, published 2024).
“Also recorded” adds a separate entry of the source.

How the values were obtained:
[1] = system: fucosylated HLA-DRB1 in WM793 cells; assay: Lectin-mediated proximity ligation assay (L-PLA) of fucosylated HLA-DRB1; type: cell-based, human; conditions: vs. DMSO
Text: FIGS. 22A-221 show Schematic of L-PLA staining and verification of fucosylated HLA-DRB1 staining, which is weakly associated with tumor peripheral CD4+T cells; and the effects of L-fucose on tumor PD-L1 expression (a) Schematic of lectin-mediated proximity ligation analysis (L-PLA) using fucosylated HLA-DRB1 (fuco-HLA-DRB1) as an example. We stained for (i) HLA-DRB1 using […]-HLA-DRB1 followed by (+) oligo-conjugated PLA secondary and (ii) fucosylated glycan using biotinylated (“B”) AAL lectin followed by D-biotin followed by (−) oligo-conjugated PLA secondary. Ligated PLA oligos were subjected to rolling circle amplification PCR (RCA PCR), giving rise to fluorescent punctae. […] Single melanoma marker, AAL-FITC, and HLA-DRB1 channels are shown in white for clearer visualization. […] (d) FFPE melanoma tissues were subjected to L-PLA HLA-DRB1 staining ±500 mM L-fucose wash and subsequent staining with melanoma marker (MART1+SI10 cocktail), and DAPI. Single melanoma marker and fuco-HLA-DRB1 channels are shown in white for clear visualization. Total loss of fuco-HLA-DRB1 signal in the +L-fucose wash tissue confirms the fucose-specificity of L-PLA for fuco-HLA-DRB1. […]
Laboratories (Burlingame, CA)), on coverslips overnight in 4° C. […] Microscopy images were acquired using a Keyence BZ-X710, and images were process and analyzed using FIJI (NIH).

[2] = system: MDSCs co-cultured with T cells; assay: MDSC immunosuppression of T cell proliferation (Cell Trace Violet) and IFNγ release/production in co-culture; type: cell-based, mouse; conditions: for T cell proliferation with pretreated splenic MDSCs: FIG. 3F; for IFNγ release / production by T cells with modulated MDSCs: FIG. 3G, FIG. 8B
Description: Tlhe myeloid cells, which were stimulated to imlmuno, suppressive MDSCs using GM/G-CSF, were divided into 3 treatment groups: (i) Treatment±250 uM L-fuc prior, duri ng, and after GM/G-CSF stimulation. Treatment±250 uM L-fuc during and after GM/G-CSF stimulation. (ii) Treatment±250 uM L-fuc only after GM/G-CSF stimulation. Greiss assay timepoints reier to hours after initial dose of L-fuc regardless of when cells were treated, L-fuc abrogated their ability to glenerate NO. […] We subsequently co-cultured the modulated MDSCs wilh T cells, which were then activated or not with CD3/CD28 beads and measured for IFNψ production. *. p •<0.05

TUBO (mouse BC) = assay: TUBO breast cancer growth in immunodeficient mice ± L-fuc; type: in vivo; conditions: immunodeficient NSG mice ± 500 mM L-fuc (FIG. 3A)
dendritic cells = assay: TLR profiles of bone marrow-derived dendritic cells (RT-qPCR); type: cell-based, Balb/C mice; conditions: 250 uM L-fucose, 96 hours, then LPS 24 hours
Description: Bone marrow was harvested from either 4-week-old (young) or 6-month-old (old) Balb/C mice. Cells were isolated and cultured in DC maturation cocktail ([…], […], ±250 uM L-fucose) for 96 hours. At 96 hours the cells were treated with 10 ug/ml LPS for 24 hours after which the cells were harvested, and the RNA was extracted. RT-qPCR was performed. Data represents fold change of indicated genes normalized to values of young mice. N=3 mice per age group.

mouse melanoma tumors = assay: Earlier mouse melanoma model with dietary fucose supplementation or FUK overexpression (tumor growth, CD45 and DX5 staining); type: in vivo
Description: To determine whether dietary or genetic modulation of fucosylation affects tumor growth and metastasis, we previously studied a mouse melanoma model in which tumor fucosylation was increased either by dietary supplementation (FIG. 2A) with 100 mM fucose or by overexpressing mouse FUK (FIG. 2B). […] To determine whether fucosylation affects tumor infiltration by immune cells, Immunofluorescent staining analysis of CD45 (general leukocyte marker, red) and DAPI (blue) was performed (FIG. 2C). To determine whether fucosylation affects tumor infiltration by NK cells, immunofluorescent staining analysis for DX5 (an NK cell marker, red) and DAPI (blue) was performed (FIG. 2D). Both NK cells and CD4+ T cells were elevated in samples from fucose supplemented mice.

| SMILES | L-PLA staining of endogenous fucosylated HLA-DRB1 [1] | T cell proliferation with pretreated splenic MDSCs [2] | T cell proliferation with pretreated splenic MDSCs ([2]; listed as L-fuc) | IFNγ release / production by T cells with modulated MDSCs [2] | IFNγ release / production by T cells with modulated MDSCs ([2]; listed as L-fuc) | TUBO tumor growth (TUBO (mouse BC)) | TLR profiles of dendritic cells (dendritic cells) | block of tumor growth and metastasis (mouse melanoma tumors; dietary L-fucose supplementation, mouse models) [%] | tumor suppression (mouse melanoma tumors; dietary supplementation with 100 mM fucose (FIG. 2A)) | NK cells and CD4+ T cells in tumor samples (mouse melanoma tumors; fucose supplemented mice (FIG. 2C, 2D)) |
| --- | --- | --- | --- | --- | --- | --- | --- | --- | --- | --- |
| CC(=O)OC1O[C@@H](C)[C@@H](OC(C)=O)[C@@H](OC(C)=O)[C@@H]1F (stereo partly shown) [FUTi, 2F-peracteyl-fucose, reference compound] | lost | – | – | – | – | – | – | – | – | – |
| C[C@H](O)[C@@H](O)[C@@H](O)[C@H](O)C=O [L-fucose] | – | increased | decreases splenic MDSC immunosuppression | increased | significantly stimulated; also recorded: decreases splenic MDSC immunosuppression | not effected | alters | > 50 | increased tumor suppression | elevated |
